Measurements reported in PubChem BioAssay AID248 (DTP/NCI, 2004).
Where “and” joins values, the source holds several entries; their conditions need not be identical. Equal values may be shown once. Toxic doses and inconclusive results are not listed.

Test system: L1210 leukemia ip in BDF1 mice, survival T/C
Assay: NCI In Vivo Anticancer Drug Screen. Data for tumor model L1210 Leukemia (intraperitoneal) in B6D2F1 (BDF1) mice
Conditions: endpoint: mean survival time, higher = longer survival
Summary of the method: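 Survival endpoint. Drug-treated group vs vehicle group, expressed as T divided by C. Tumor passaged by transplantation.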

[1] = dose: 100.0 mg/kg/injection, schedule: Q01DX001 (ip), vehicle: other
[2] = dose: 200.0 mg/kg/injection, schedule: Q01DX001 (ip), vehicle: other
[3] = dose: 400.0 mg/kg/injection, schedule: Q04DX003 (ip), vehicle: Klucel (hydroxypropylcellulose) (HPC)

In the case of `Cc1cc(S(=O)(=O)Cl)c(Cl)cc1Cl`, the T/C (dose: 100.0 mg/kg/injection, schedule: Q01DX001 (ip), vehicle: saline) was 96 % of control, the T/C (dose: 200.0 mg/kg/injection, schedule: Q01DX001 (ip), vehicle: saline) was 103 % of control and the T/C (dose: 400.0 mg/kg/injection, schedule: Q01DX001 (ip), vehicle: saline) was 96 % of control.
For `CC(C)n1cnc2c(=S)nc[nH]c21`, the T/C (dose: 3.12 mg/kg/injection, schedule: Q01DX Z (ip), vehicle: carboxymethylcellulose (CMC)) was 106 % of control, the T/C (dose: 7.25 mg/kg/injection, schedule: Q01DX Z (ip), vehicle: carboxymethylcellulose (CMC)) was 103 % of control and the T/C (dose: 7.25 mg/kg/injection, schedule: Q01DX Z (oral), vehicle: carboxymethylcellulose (CMC)) was 110 % of control. The T/C (dose: 14.5 mg/kg/injection, schedule: Q01DX Z (ip), vehicle: carboxymethylcellulose (CMC)) was 110 % of control, the T/C (dose: 14.5 mg/kg/injection, schedule: Q01DX Z (oral), vehicle: carboxymethylcellulose (CMC)) was 118 % of control and the T/C (dose: 29.0 mg/kg/injection, schedule: Q01DX Z (ip), vehicle: carboxymethylcellulose (CMC)) was 116 % of control. For the same compound, the T/C (dose: 58.0 mg/kg/injection, schedule: Q01DX Z (oral), vehicle: carboxymethylcellulose (CMC)) was 152 % of control and the T/C (dose: 210.0 mg/kg/injection, schedule: Q01DX Z (ip), vehicle: carboxymethylcellulose (CMC)) was 90 % of control.
With `Cc1ccc(N=Nc2c(N)ccc3ccccc23)cc1` the T/C [1] was 100 % of control and the T/C [2] was 100 % of control.
In the case of `CCCCCCCCCCC1CCC(CCCCCCCCCC)CC1` (stereo not drawn), the T/C [1] was 106 % of control, the T/C [2] was 107 % of control and the T/C (dose: 400.0 mg/kg/injection, schedule: Q01DX001 (ip), vehicle: other) was 91 % of control.
`NC(CCSCc1ccc(N(CCCl)CCCl)cc1)C(=O)O` (stereo not drawn) was tested, and the T/C (dose: 3.0 mg/kg/injection, schedule: Q01DX Z (ip), vehicle: saline) was 123 % of control, the T/C (dose: 8.0 mg/kg/injection, schedule: Q01DX Z (ip), vehicle: saline) was 113 % of control and the T/C (dose: 12.0 mg/kg/injection, schedule: Q01DX Z (ip), vehicle: saline) was 113 % of control. The T/C (dose: 36.0 mg/kg/injection, schedule: Q01DX Z (ip), vehicle: saline) was 114 % of control, the T/C (dose: 54.0 mg/kg/injection, schedule: Q01DX Z (ip), vehicle: saline) was 103 % of control and 90 % of control and the T/C (dose: 81.0 mg/kg/injection, schedule: Q01DX Z (ip), vehicle: saline) was 95 % of control. The T/C (dose: 100.0 mg/kg/injection, schedule: Q01DX001 (ip), vehicle: carboxymethylcellulose (CMC)) was 169 % of control, the T/C (dose: 200.0 mg/kg/injection, schedule: Q01DX001 (ip), vehicle: carboxymethylcellulose (CMC)) was 182 % of control and the T/C (dose: 400.0 mg/kg/injection, schedule: Q01DX001 (ip), vehicle: carboxymethylcellulose (CMC)) was 113 % of control.
`Cc1ccc(Cl)c2ccccc12` was tested, and the T/C (dose: 12.5 mg/kg/injection, schedule: Q01DX009 (ip), vehicle: saline with Tween-80) was 106 % of control, the T/C (dose: 25.0 mg/kg/injection, schedule: Q01DX009 (ip), vehicle: saline with Tween-80) was 104 % of control and the T/C (dose: 50.0 mg/kg/injection, schedule: Q01DX009 (ip), vehicle: saline with Tween-80) was 106 % of control. The T/C (dose: 100.0 mg/kg/injection, schedule: Q01DX009 (ip), vehicle: saline with Tween-80) was 93 % of control, the T/C (dose: 200.0 mg/kg/injection, schedule: Q01DX009 (ip), vehicle: saline with Tween-80) was 90 % of control and the T/C (dose: 400.0 mg/kg/injection, schedule: Q01DX009 (ip), vehicle: saline with Tween-80) was 101 % of control.
With `Cc1c(Cl)c(Cl)c(C)c(Cl)c1Cl` the T/C (dose: 100.0 mg/kg/injection, schedule: Q01DX009 (ip), vehicle: Klucel (hydroxypropylcellulose) (HPC)) was 86 % of control, the T/C (dose: 100.0 mg/kg/injection, schedule: Q04DX003 (ip), vehicle: Klucel (hydroxypropylcellulose) (HPC)) was 95 % of control and the T/C (dose: 200.0 mg/kg/injection, schedule: Q01DX009 (ip), vehicle: Klucel (hydroxypropylcellulose) (HPC)) was 89 % of control. The T/C (dose: 200.0 mg/kg/injection, schedule: Q04DX003 (ip), vehicle: Klucel (hydroxypropylcellulose) (HPC)) was 101 % of control, the T/C (dose: 400.0 mg/kg/injection, schedule: Q01DX009 (ip), vehicle: Klucel (hydroxypropylcellulose) (HPC)) was 87 % of control and the T/C [3] was 93 % of control.
For `Nc1nc(SCc2ccccn2)c2[nH]cnc2n1`, the T/C (dose: 45.0 mg/kg/injection, schedule: Q04DX003 (ip), vehicle: Klucel (hydroxypropylcellulose) (HPC)) was 121 % of control, the T/C (dose: 65.0 mg/kg/injection, schedule: Q04DX003 (ip), vehicle: Klucel (hydroxypropylcellulose) (HPC)) was 124 % of control and the T/C [3] was 155 % of control.
For `O=C(Nc1cc(C(F)(F)F)ccc1Cl)C(=O)Nc1cc(C(F)(F)F)ccc1Cl`, the T/C (dose: 100.0 mg/kg/injection, schedule: Q01DX009 (ip), vehicle: gum acacia) was 88 % of control, the T/C (dose: 200.0 mg/kg/injection, schedule: Q01DX009 (ip), vehicle: gum acacia) was 93 % of control and the T/C (dose: 400.0 mg/kg/injection, schedule: Q01DX009 (ip), vehicle: gum acacia) was 93 % of control.
